Measured values as given in patent US11472798B2 (Mission Therapeutics Limited, priority 2014, dated 2022).

Target: T1, UCHL1 (Homo sapiens, UniProt P09936)
T1 construct: made in house; host or cells: HEK293T
T1 sequence (P09936 1-223): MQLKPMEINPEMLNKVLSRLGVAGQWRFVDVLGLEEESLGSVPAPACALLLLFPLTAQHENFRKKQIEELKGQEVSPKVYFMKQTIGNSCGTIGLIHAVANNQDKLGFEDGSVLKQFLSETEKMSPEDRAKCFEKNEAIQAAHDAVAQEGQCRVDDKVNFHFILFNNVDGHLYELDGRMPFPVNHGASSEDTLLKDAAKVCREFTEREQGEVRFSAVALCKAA
Assay: UCHL1 biochemical IC50 assay (fluorescence polarisation)
Conditions: 30 min enzyme/compound pre-incubation at room temp, read after 2 hr incubation, read-out: Activity range (UCHL1 biochemical IC50 assay)
How it was run: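 FLAG-UCHL1 purified from transfected HEK293T cells was preincubated 30 min at room temperature with compound (8 points, 100–0.03 μM final) in Tris pH 7.5 buffer with Tween 20, BSA and beta-mercaptoethanol. Reaction started with 50 nM TAMRA-peptide–ubiquitin isopeptide substrate; fluorescence polarisation (ex 540/em 590 nm) read at once and after 2 h.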

Compound | IC50
N#CN1C[C@@H](C(=O)Nc2ncc(-c3ccccc3)s2)[C@H](c2cncnc2)C1 (relative stereo) [Example 283, trans-1-cyano-N-(5-phenylthiazol-2-yl)-4-(pyrimidin-5-yl)pyrrolidine-3-carboxamide] | 1000 to 10000 nM
Cc1noc(C)c1Cn1cnc(NC(=O)[C@H]2CCN(C#N)C2)c1 [Example 171, (S)-1-cyano-N-(1-((3,5-dimethylisoxazol-4-yl)methyl)-1H-imidazol-4-yl)pyrrolidine-3-carboxamide] | 1000 to 10000 nM
C#Cc1ccc2cnc(NC(=O)[C@H]3CCN(C#N)[C@H]3C)cc2c1 [Example 264, (2S,3S)-1-cyano-N-(6-ethynylisoquinolin-3-yl)-2-methylpyrrolidine-3-carboxamide] | 1000 to 10000 nM
N#CN1CCC(C(=O)Nc2nc(-c3ccccc3)cs2)C1 (stereo not drawn) [Example 9, 1-cyano-N-(4-phenylthiazol-2-yl)pyrrolidine-3-carboxamide] | 10000 to 30000 nM
COc1ccnc(NC(=O)[C@H]2CCN(C#N)C2)c1 [Example 53, (S)-1-cyano-N-(4-methoxypyridin-2-yl)pyrrolidine-3-carboxamide] | 1000 to 10000 nM
Cc1cnc(NC(=O)[C@@H]2CN(C#N)C[C@H]2C)s1 [Example 83, (3S,4S)-1-cyano-4-methyl-N-(5-methylthiazol-2-yl)pyrrolidine-3-carboxamide] | 1000 to 10000 nM
N#CN1CCC(C(=O)Nc2ncc(-c3cccc(Cl)c3)s2)C1 (stereo not drawn) [Example 5, N-(5-(3-chlorophenyl)thiazol-2-yl)-1-cyano-pyrrolidine-3-carboxamide] | 1000 to 10000 nM
N#CN1CC[C@@H](C(=O)Nc2ncc(N3CCOCC3)s2)C1 [Example 102, (R)-1-cyano-N-(5-morpholinothiazol-2-yl)pyrrolidine-3-carboxamide] | 1000 to 10000 nM
N#CN1CC[C@H](C(=O)Nc2nc3ccc(-c4cn[nH]c4)cc3s2)C1 [Example 292, (S)-N-(6-(1H-pyrazol-4-yl)benzo[d]thiazol-2-yl)-1-cyanopyrrolidine-3-carboxamide] | 1000 to 10000 nM
CC(c1ccccc1)N(C)S(=O)(=O)c1ccc(NC(=O)[C@H]2CCN(C#N)C2)nc1 (stereo partly drawn) [Example 208, (3S)-1-cyano-N-(5-(N-methyl-N-(1-phenylethyl)sulfamoyl)pyridin-2-yl)pyrrolidine-3-carboxamide] | < 1000 nM
N#CN1CCC(C(=O)Nc2cc(-c3ccccc3)on2)C1 (stereo not drawn) [Example 15, 1-cyano-N-(5-phenylisoxazol-3-yl)pyrrolidine carboxamide] | 1000 to 10000 nM
Cc1noc(C)c1-c1ccc2nc(NC(=O)[C@@H]3CN(C#N)C[C@H]3C(F)(F)F)cn2c1 (racemic) [Example 210, (±)-trans-1-cyano-N-(6-(3,5-dimethylisoxazol-4-yl)imidazo[1,2-a]pyridin-2-yl)-4-(trifluoromethyl)pyrrolidine-3-carboxamide] | < 1000 nM
N#Cc1ccc(-n2cnc(NC(=O)[C@H]3CCN(C#N)C3)c2)cc1C1CC1 [Example 304, (S)-1-cyano-N-(1-(4-cyano-3-cyclopropylphenyl)-1H-imidazol-4-yl)pyrrolidine-3-carboxamide] | < 1000 nM
N#CN1CC[C@H](C(=O)Nc2ncc(-c3ccc(F)cc3)s2)C1 [Example 66, (S)-1-cyano-N-(5-(4-fluorophenyl)thiazol-2-yl)pyrrolidine-3-carboxamide] | < 1000 nM
N#CN1CCC(C(=O)Nc2ncc(-c3cccnc3)s2)C1 (stereo not drawn) [Example 112, 1-cyano-N-(5-(pyridin-3-yl)thiazol-2-yl)pyrrolidine-3-carboxamide] | < 1000 nM
N#Cc1ccc(-n2cnc(NC(=O)[C@H]3CCN(C#N)C3)c2)cc1C(F)(F)F [Example 309, (S)-1-cyano-N-(1-(4-cyano-3-(trifluoromethyl)phenyl)-1H-imidazol-4-yl)pyrrolidine-3-carboxamide] | < 1000 nM
Cc1oncc1-c1cc(-c2ccnc(NC(=O)[C@H]3CCN(C#N)C3)c2)ccn1 [Example 297, (S)-1-cyano-N-(2′-(5-methylisoxazol-4-yl)-[4-4′-bipyridin]-2-yl)pyrrolidine-3-carboxamide] | < 1000 nM
COC[C@H]1CCCN1Cc1cnc(NC(=O)[C@H]2CCN(C#N)[C@H]2C)s1 [Example 145, (2S,3S)-1-cyano-N-(5-(((R)-2-(methoxymethyl)pyrrolidin-1-yl)methyl)thiazol-2-yl)-2-methylpyrrolidine-3-carboxamide] | 1000 to 10000 nM
COC(=O)N1CCc2nc(NC(=O)[C@H]3CCN(C#N)C3)sc2C1 [Example 198, methyl (S)-2-(1-cyanopyrrolidine-3-carboxamido)-6,7-dihydrothiazolo[5,4-c]pyridine-5(4H)-carboxylate] | < 1000 nM
N#CN1CC[C@H](C(=O)Nc2ncc(-c3cccc4c3NC(=O)C4)s2)C1 [Example 228, (S)-1-cyano-N-(5-(2-oxoindolin-7-yl)thiazol-2-yl)pyrrolidine-3-carboxamide] | < 1000 nM
CC1(C(=O)Nc2ncc(-c3ccccc3)s2)CCN(C#N)C1 (stereo not drawn) [Example 78, 1-cyano-3-methyl-N-(5-phenylthiazol-2-yl)pyrrolidine-3-carboxamide] | 1000 to 10000 nM
COc1ccc(-n2cnc(NC(=O)[C@H]3CCN(C#N)C3)c2)cc1 [Example 159, (S)-1-cyano-N-(1-(4-methoxyphenyl)-1H-imidazol-4-yl)pyrrolidine-3-carboxamide] | < 1000 nM
C[C@H](c1ccccc1)n1cnc(NC(=O)[C@H]2CCN(C#N)C2)c1 [Example 167, (S)-1-cyano-N-(1-((R)-1-phenylethyl)-1H-imidazol-4-yl)pyrrolidine-3-carboxamide] | < 1000 nM
N#CN1CCC(C(=O)Nc2ccc(N3CCCCC3)cn2)C1 (stereo not drawn) [Example 29, 1-cyano-N-(5-(piperidin-1-yl)pyridin-2-yl)pyrrolidine-3-carboxamide] | 1000 to 10000 nM
N#Cc1ccc(-c2cnc(NC(=O)[C@H]3CCN(C#N)C3)s2)cc1F [Example 214, (S)-1-cyano-N-(5-(4-cyano-3-fluorophenyl)thiazol-2-yl)pyrrolidine-3-carboxamide] | < 1000 nM

The next lines start with the values.

IC50 | Compound
< 1000 nM | Cc1cccc(C)c1-c1ccc2nc(NC(=O)[C@H]3CCN(C#N)C3)sc2c1 [Example 287, (S)-1-cyano-N-(6-(2,6-dimethylphenyl)benzo[d]thiazol-2-yl)pyrrolidine-3-carboxamide]
< 1000 nM | N#CN1CC[C@H](C(=O)Nc2cn(-c3ccncc3)cn2)C1 [Example 182, (S)-1-cyano-N-(1-(pyridin-4-yl)-1H-imidazol-4-yl)pyrrolidine-3-carboxamide]
< 1000 nM | COC[C@H]1CCCN1c1cnc(NC(=O)[C@H]2CCN(C#N)C2)s1 [Example 99, (S)-1-cyano-N-(5-((R)-2-(methoxymethyl)pyrrolidin-1-yl)thiazol-2-yl)pyrrolidine-3-carboxamide]
< 1000 nM | N#CN1CC[C@H](C(=O)Nc2cn(-c3ccnc4ccccc34)cn2)C1 [Example 305, (S)-1-cyano-N-(1-(quinolin-4-yl)-1H-imidazol-4-yl)pyrrolidine-3-carboxamide]
< 1000 nM | N#CN1CC[C@H](C(=O)Nc2cn(Cc3ccccn3)cn2)C1 [Example 168, (S)-1-cyano-N-(1-(pyridin-2-ylmethyl)-1H-imidazol-4-yl)pyrrolidine-3-carboxamide]
< 1000 nM | N#CN1CC[C@H](C(=O)Nc2nc3c(s2)CN(C(=O)c2ccccc2)CC3)C1 [Example 191, (S)—N-(5-benzoyl-4,5,6,7-tetrahydrothiazolo[5,4-c]pyridin-2-yl)-1-cyanopyrrolidine-3-carboxamide]
< 1000 nM | N#CN1CC[C@H](C(=O)Nc2cn(-c3ccc(-c4cn[nH]c4)cc3)cn2)C1 [Example 294, (S)-N-(1-(4-(1H-pyrazol-4-yl)phenyl)-1H-imidazol-4-yl)-1-cyanopyrrolidine-3-carboxamide]
< 1000 nM | CCNC(=O)c1cccc(-c2cnc(NC(=O)[C@H]3CCN(C#N)C3)s2)c1 [Example 234, (S)-1-cyano-N-(5-(3-(ethylcarbamoyl)phenyl)thiazol-2-yl)pyrrolidine-3-carboxamide]
< 1000 nM | N#CN1CC[C@H](C(=O)Nc2cc(C3CCOCC3)[nH]n2)C1 [Example 43, (S)-1-cyano-N-(5-(tetrahydro-2H-pyran-4-yl)-1H-pyrazol-3-yl)pyrrolidine-3-carboxamide]
< 1000 nM | N#CN1CC[C@H](C(=O)Nc2cc3n(n2)CCN(c2ccccc2)C3)C1 [Example 241, (S)-1-cyano-N-(5-phenyl-4,5,6,7-tetrahydropyrazolo[1,5-a]pyrazin-2-yl)pyrrolidine-3-carboxamide]
< 1000 nM | Cc1nc(NC(=O)[C@H]2CCN(C#N)C2)sc1CN1CCOCC1 [Example 65, (S)-1-cyano-N-(4-methyl-5-(morpholinomethyl)thiazol-2-yl)pyrrolidine-3-carboxamide]
< 1000 nM | N#Cc1ccc(-c2cnc(NC(=O)[C@H]3CCN(C#N)C3)s2)cc1 [Example 118, (S)-1-cyano-N-(5-(4-cyanophenyl)thiazol-2-yl)pyrrolidine-3-carboxamide]
< 1000 nM | CC(C)S(=O)(=O)N1CCc2nc(NC(=O)[C@H]3CCN(C#N)C3)sc2CC1 [Example 277, (S)-1-cyano-N-(6-(isopropylsulfonyl)-5,6,7,8-tetrahydro-4H-thiazolo[4,5-d]azepin-2-yl)pyrrolidine-3-carboxamide]
< 1000 nM | COc1cc(-c2ccc3nc(NC(=O)[C@H]4CCN(C#N)C4)sc3c2)c(OC)nn1 [Example 132, (S)-1-cyano-N-(6-(3,6-dimethoxypyridazin-4-yl)benzo[d]thiazol-2-yl)pyrrolidine-3-carboxamide]
